The results in this text go back to article PMC5823789 (Journal of medicinal chemistry, 2018).

Entries after “also recorded” stand apart in the source; their conditions may differ.

The target of series [1] is DOT1L (Homo sapiens, UniProt Q8TEK3). As to the kind of experiment: Selectivity assay, filter-based 3H-SAM methyltransferase assay. In kind it is biochemical.
In series [2] the target is T1, BCDIN3D (Homo sapiens, UniProt Q7Z5W3).
T1 sequence (Q7Z5W3 1-292): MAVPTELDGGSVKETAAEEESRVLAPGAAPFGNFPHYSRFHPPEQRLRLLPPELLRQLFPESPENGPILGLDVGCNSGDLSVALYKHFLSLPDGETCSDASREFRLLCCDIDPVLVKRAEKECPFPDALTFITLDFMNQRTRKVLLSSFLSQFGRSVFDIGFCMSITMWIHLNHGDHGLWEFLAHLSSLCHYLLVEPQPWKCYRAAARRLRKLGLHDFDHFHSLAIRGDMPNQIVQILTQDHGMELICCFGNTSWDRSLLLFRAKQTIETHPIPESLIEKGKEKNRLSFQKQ
Description: Selectivity assay, scintillation proximity assay. The format is biochemical.

Series [3] deals with T2, PRMT7 (Homo sapiens, UniProt Q9NVM4).
T2 sequence (Q9NVM4 1-692): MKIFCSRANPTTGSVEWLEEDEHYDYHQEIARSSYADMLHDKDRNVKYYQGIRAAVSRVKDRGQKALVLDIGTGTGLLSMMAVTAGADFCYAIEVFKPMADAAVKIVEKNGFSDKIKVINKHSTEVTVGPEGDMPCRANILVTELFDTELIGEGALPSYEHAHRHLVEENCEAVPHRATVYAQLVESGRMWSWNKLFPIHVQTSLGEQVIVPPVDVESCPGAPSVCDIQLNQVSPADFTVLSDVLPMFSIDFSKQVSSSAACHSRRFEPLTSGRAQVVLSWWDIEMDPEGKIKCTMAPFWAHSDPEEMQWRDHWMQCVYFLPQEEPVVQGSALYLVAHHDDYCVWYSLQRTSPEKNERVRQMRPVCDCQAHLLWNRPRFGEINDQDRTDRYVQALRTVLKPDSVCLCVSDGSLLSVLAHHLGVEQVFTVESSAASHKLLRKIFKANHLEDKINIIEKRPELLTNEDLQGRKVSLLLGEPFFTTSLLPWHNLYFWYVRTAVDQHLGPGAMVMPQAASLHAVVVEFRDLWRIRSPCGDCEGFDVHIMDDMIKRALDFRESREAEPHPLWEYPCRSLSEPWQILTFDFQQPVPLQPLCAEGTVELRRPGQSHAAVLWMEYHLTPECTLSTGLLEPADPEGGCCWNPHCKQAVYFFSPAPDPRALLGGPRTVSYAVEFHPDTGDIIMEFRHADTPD
As to the kind of experiment: Selectivity assay, scintillation proximity assay. In kind it is biochemical. (In general: SPA uses beads or plates that emit light when radiolabelled molecules are held near them.)

Series [4] has as its target SMYD2 (Homo sapiens, UniProt Q9NRG4). As to the kind of experiment: Selectivity assay, scintillation proximity assay. In kind it is biochemical.
The target in series [5] is T3, hNNMT (Homo sapiens, UniProt P40261).
T3 sequence (P40261 1-264): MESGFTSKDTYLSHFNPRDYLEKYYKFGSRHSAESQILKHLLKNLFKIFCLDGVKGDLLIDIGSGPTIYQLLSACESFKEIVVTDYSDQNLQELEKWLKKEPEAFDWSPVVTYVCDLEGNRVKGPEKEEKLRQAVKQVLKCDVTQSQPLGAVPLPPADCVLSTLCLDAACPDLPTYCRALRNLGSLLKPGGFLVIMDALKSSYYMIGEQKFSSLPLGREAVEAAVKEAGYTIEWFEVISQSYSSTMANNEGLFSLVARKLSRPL
Description: SAHH-coupled fluorescent assay of NNMT methyltransferase activity. In kind it is biochemical.

Series [6] addresses T3, hNNMT. As to the kind of experiment: Isothermal titration calorimetry. The format is binding. For orientation: ITC needs no label: the signal is the heat of the interaction.
Substrate in series [7]: NC(=O)c1cccnc1
As to the kind of experiment: purified protein, by the assay type. To be noted: other: SAHH-coupled assay; kcat 4.1 ± 0.2 min^-1; pH 7.5.

Chain of SMYD2 (Q9NRG4 whole entry, species assumed): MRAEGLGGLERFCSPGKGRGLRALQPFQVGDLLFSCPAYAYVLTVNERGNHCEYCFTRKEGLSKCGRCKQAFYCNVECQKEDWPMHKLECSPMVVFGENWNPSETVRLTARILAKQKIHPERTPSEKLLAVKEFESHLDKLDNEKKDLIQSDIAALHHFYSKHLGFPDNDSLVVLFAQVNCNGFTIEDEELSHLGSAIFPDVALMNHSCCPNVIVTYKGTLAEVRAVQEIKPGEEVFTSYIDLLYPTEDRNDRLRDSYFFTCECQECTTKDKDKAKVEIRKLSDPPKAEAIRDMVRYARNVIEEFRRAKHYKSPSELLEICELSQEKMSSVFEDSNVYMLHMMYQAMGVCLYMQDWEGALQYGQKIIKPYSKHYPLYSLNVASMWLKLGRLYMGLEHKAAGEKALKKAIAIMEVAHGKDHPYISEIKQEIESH
Chain of DOT1L (Q8TEK3 whole entry, species assumed): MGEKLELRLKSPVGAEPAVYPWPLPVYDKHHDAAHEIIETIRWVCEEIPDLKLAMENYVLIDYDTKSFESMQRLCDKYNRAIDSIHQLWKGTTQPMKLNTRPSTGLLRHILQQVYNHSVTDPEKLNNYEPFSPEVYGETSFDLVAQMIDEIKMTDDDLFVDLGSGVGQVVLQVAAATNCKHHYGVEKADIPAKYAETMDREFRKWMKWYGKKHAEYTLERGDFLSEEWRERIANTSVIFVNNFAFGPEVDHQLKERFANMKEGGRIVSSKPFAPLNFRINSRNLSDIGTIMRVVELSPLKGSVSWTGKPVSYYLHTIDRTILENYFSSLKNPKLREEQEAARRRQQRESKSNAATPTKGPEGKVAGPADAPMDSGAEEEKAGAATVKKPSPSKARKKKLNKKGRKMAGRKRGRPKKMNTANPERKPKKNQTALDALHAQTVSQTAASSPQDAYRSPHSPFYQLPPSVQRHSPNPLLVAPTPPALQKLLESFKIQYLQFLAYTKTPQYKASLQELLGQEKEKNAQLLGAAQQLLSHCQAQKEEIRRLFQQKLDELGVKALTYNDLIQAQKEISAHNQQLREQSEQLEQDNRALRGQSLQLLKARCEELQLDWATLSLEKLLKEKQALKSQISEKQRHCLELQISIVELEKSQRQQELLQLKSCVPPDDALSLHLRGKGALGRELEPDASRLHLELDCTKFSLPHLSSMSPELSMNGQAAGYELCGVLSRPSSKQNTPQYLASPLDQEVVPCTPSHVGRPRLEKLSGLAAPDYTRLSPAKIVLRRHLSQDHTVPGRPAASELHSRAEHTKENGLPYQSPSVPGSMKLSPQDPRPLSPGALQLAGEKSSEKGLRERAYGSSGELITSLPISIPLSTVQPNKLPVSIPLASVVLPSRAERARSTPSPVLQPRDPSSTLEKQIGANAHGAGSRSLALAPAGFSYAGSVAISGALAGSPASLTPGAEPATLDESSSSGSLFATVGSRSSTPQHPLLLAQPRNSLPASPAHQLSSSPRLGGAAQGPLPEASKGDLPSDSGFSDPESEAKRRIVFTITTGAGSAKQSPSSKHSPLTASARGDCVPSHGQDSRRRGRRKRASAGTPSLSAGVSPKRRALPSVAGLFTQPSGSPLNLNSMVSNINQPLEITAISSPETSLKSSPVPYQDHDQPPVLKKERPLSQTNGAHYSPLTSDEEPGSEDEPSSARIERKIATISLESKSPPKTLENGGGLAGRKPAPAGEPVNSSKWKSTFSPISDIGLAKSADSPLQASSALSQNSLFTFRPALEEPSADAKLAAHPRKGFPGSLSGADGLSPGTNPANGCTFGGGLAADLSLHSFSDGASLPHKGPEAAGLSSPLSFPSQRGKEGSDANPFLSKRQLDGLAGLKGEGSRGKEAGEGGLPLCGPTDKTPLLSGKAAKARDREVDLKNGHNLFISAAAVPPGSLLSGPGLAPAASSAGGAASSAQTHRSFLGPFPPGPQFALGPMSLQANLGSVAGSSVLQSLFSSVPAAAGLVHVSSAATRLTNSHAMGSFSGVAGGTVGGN

In the case of `NC(=O)c1cccc(CCN(CCC[C@H](N)C(=O)O)C[C@H]2O[C@@H](n3cnc4c(N)ncnc43)[C@H](O)[C@@H]2O)c1` [compound 6, (S)-2-Amino-5-((((2R,3S,4R,5R)-5-(6-amino-9H-purin-9-yl)-3,4-di-hydroxytetrahydrofuran-2-yl)methyl)(3-carbamoylphenethyl)-amino)pentanoic acid], the “Hill slope, DOT1L” value in series [1] was 1.1. In series [2], the “Hill slope, BCDIN3D” value came out at 1.3. Moreover, the “Hill slope, PRMT7” value in series [3] worked out at 1.1. Further, in series [4], the “Hill slope, SMYD2” value is listed as 0.6. Also, in series [5] (200 μM nicotinamide, SAM varied 12.5 to 200 μM, Lineweaver-Burk), the “Mechanism of inhibition with respect to cofactor SAM” value is “SAM competitive; also recorded: competitive inhibition”. Further, the “Mechanism of inhibition with respect to substrate nicotinamide” value in series [5] (250 μM SAM, nicotinamide varied 12.5 to 200 μM, Lineweaver-Burk) was “noncompetitive inhibition”.
As for `NC(=O)c1cccnc1` [nicotinamide], the “Binding to hNNMT in ITC in the absence of the cofactor” value in series [6] (no cofactor) is given as “not observed”.
One may read the Kd as the free concentration of one partner at which half of the binding sites on the other are occupied at equilibrium, for simple one-to-one binding. By Km is commonly meant the substrate concentration at which the rate is half of its maximum. For the molecule `C[S+](CC[C@H](N)C(=O)O)C[C@H]1O[C@@H](n2cnc3c(N)ncnc32)[C@H](O)[C@@H]1O` (stereo partly drawn) [SAM, S-5′-adenosyl-L-methionine, reference compound], the Kd in series [6] (read-out: Kd for binding to hNNMT (ITC), 25 °C, 50 mM Tris pH 8.0, 100 mM NaCl) was 56.4 ± 9.5 µM. Further, the Km in series [5] (read-out: Km for NNMT) amounted to 24 ± 6.8 µM.

B1: hNNMT (Homo sapiens) (protein)
chain: MESGFTSKDTYLSHFNPRDYLEKYYKFGSRHSAESQILKHLLKNLFKIFCLDGVKGDLLIDIGSGPTIYQLLSACESFKEIVVTDYSDQNLQELEKWLKKEPEAFDWSPVVTYVCDLEGNRVKGPEKEEKLRQAVKQVLKCDVTQSQPLGAVPLPPADCVLSTLCLDAACPDLPTYCRALRNLGSLLKPGGFLVIMDALKSSYYMIGEQKFSSLPLGREAVEAAVKEAGYTIEWFEVISQSYSSTMANNEGLFSLVARKLSRPL
As for B1, the Km in series [7] was determined as 20 ± 3 µM.
